In the NIST ThermoML archive (doi:10.1016/j.jct.2007.04.009):

Assay: cn = amount concentration of the nth substance listed, in mol/dm3
Details: 101 kPa, Liquid; for speed of sound: Sing-around technique in a fixed-path interferometer; for mass density: Vibrating tube method

Cl [hydrogen chloride] + O
Details | mass density, c1 = 0.001 [kg/m3] | mass density, c1 = 0.01 [kg/m3] | speed of sound, c1 = 0.001 [m/s] | speed of sound, c1 = 0.01 [m/s]
283.15 K | 999.726 | 999.891 | 1447.9 | 1448.2
293.15 K | 998.23 | 998.393 | 1482.6 | 1482.7
298.15 K | 997.067 | 997.231 | 1496.8 | 1496.9
303.15 K | 995.67 | 995.834 | 1509.3 | 1509.3
308.15 K | 994.057 | 994.318 | 1520 | 1520
313.15 K | 992.244 | 992.405 | 1529.1 | 1529.1
